From patent US9040457B2, “Phenylamidines having a high fungicidal activity and use thereof” (ISAGRO S.P.A., priority 2010, dated 2015)

Columns and labels:
Type in all cases: in vivo
Puccinia recondita = assay: Fungicidal activity in preventive application (5 days) against Puccinia recondita on wheat; conditions: scale 100 = healthy plant, 0 = completely infected plant; for Activity P5, NT: parts developed during the test (NT); for Activity P5, T: parts treated directly (T)
Procedure: Determination of the Fungicidal Activity in Preventive Application (5 Days) Against Puccinia recondita on Wheat
(§1) Leaves of wheat plants of the Salgemma variety, grown in pots in a conditioned environment kept at 20° C. and 70% of relative humidity (R.H.), were treated by spraying on both sides of the leaves with the compounds under examination, dispersed in hydroacetonic solutions at 20% by volume of acetone.
After remaining 5 days in a conditioned environment, the plants were sprayed on both sides of the leafs with an aqueous suspension of conidia of Puccinia recondita (2 mg of inoculum per 1 ml of solution for infection).
After being sprayed, the plants were kept in a humidity-saturated environment at a temperature ranging from 18 to 24° C. for the incubation period of the fungus (1 day).
After this period, the plants were put in a greenhouse with R.H. of 70% and at a temperature of 18-24° C. for 14 days.
(§2) At the end of this period, the external symptoms of the pathogen appeared and it was therefore possible to proceed with the evaluation of the intensity of the infection, on both the parts treated directly with the products (T), and also on the parts which had developed during the test (NT), by means of a visible percentage evaluation scale of the area of affected leafs; the scale comprises, as extremes, the value 100 (healthy plant) and the value 0 (completely infected plant).

Erysiphe graminis = assay: Fungicidal activity in preventive application (5 days) against Erysiphe graminis on wheat; conditions: scale 100 = healthy plant, 0 = completely infected plant; for Activity P5, NT: parts developed during the test (NT); for Activity P5, T: parts treated directly (T)
Procedure: Determination of the Fungicidal Activity in Preventive Application (5 Days) Against Erysiphe graminis on Wheat
as §1
After remaining 5 days in a conditioned environment, the plants were infected under dry conditions by shaking over them, in order to distribute the inoculum, plants previously infected by Erysiphe graminis.
The plants were then maintained in the same cell, in a humidity-saturated environment and at a temperature ranging from 18 to 24° C. for 12 days.
as §2

wheat plants [1] = assay: Phytotoxicity (percentage of leaf necrosis) on wheat plants, Puccinia recondita test; conditions: 0 = completely healthy plant, 100 = completely necrotized plant
Procedure: as §1
(§3) At the same time, the phytotoxicity was evaluated (percentage of leaf necrosis) induced on the wheat plants by the application of the products: in this case, the evaluation scale varies from 0 (completely healthy plant) to 100 (completely necrotized plant).

wheat plants [2] = assay: Phytotoxicity (percentage of leaf necrosis) on wheat plants, Erysiphe graminis test; conditions: 0 = completely healthy plant, 100 = completely necrotized plant
Procedure: as §1, §3

[3] = system: cereals, cucumbers, tomatoes and other important crops; assay: Phytotoxicity of WO 00/46184 compounds on crops (background statement); conditions: at the doses which allow a good fungicidal activity
phytopathogenic fungi = assay: Fungicidal activity of WO 00/46184 compound (background statement); conditions: only exerted satisfactorily in excessively high dosages

SMILES	Activity P5, NT (Puccinia recondita; 30 ppm)	Activity P5, T (Puccinia recondita; 30 ppm)	Activity P5, NT (Puccinia recondita; 125 ppm)	Activity P5, T (Puccinia recondita; 125 ppm)	Activity P5, NT (Erysiphe graminis; 30 ppm)	Activity P5, T (Erysiphe graminis; 30 ppm)	Activity P5, NT (Erysiphe graminis; 125 ppm)	Activity P5, T (Erysiphe graminis; 125 ppm)	Phytotoxicity % N.F. (wheat plants [1]; 30 ppm)	Phytotoxicity % N.F. (wheat plants [1]; 125 ppm)	Phytotoxicity % N.F. (wheat plants [2]; 30 ppm)	Phytotoxicity % N.F. (wheat plants [2]; 125 ppm)	leaf necrosis on crops [3]	fungicidal activity (phytopathogenic fungi)
CCN(C)C=Nc1cc(C)c(Sc2cccc(OCC(F)(F)C(F)(F)F)c2)cc1C [Compound 23]	100%	100%	100%	100%	100%	100%	100%	100%	0%	0%	0%	0%	–	–
Cc1cc(Oc2cccc(C(F)(F)F)c2)c(C)cc1N=CN(C)C [CR-1, N,N-dimethyl-N′-[4-(3-trifluoromethylphenoxy)-2,5-xylyl]-formamidine]	70%	80%	90%	100%	76%	90%	90%	100%	14%	26%	15%	25%	marked leaf necrosis	–
Cc1cc(Oc2cccc(OCC(F)(F)F)c2)c(C)cc1N=CN(C)C [CR-5, N,N-dimethyl-N′-{4-[3-(2,2,2-trifluoroethoxy)phenoxy]-2,5-xylyl}formamidine]	60%	65%	80%	85%	65%	70%	80%	90%	15%	25%	20%	30%	marked leaf necrosis	–
CCN(C)C=Nc1cc(C)c(Sc2cccc(OCC(F)(F)F)c2)cc1C [Compound 15]	100%	100%	100%	100%	100%	100%	100%	100%	0%	0%	0%	0%	–	–
Cc1cc(Sc2cccc(C(F)(F)F)c2)c(C)cc1N=CN(C)C [CR-2, N,N-dimethyl-N′-[4-(3-trifluoromethylphenylthio)-2,5-xylyl]-formamidine]	60%	68%	90%	95%	65%	78%	80%	95%	0%	0%	0%	0%	–	insufficient
CCN(C)C=Nc1cc(C)c(Sc2cccc(OC(F)F)c2)cc1C [Compound 1, N-ethyl-N-methyl-N′-[4-(3-difluoromethoxyphenylthio)-2,5-xylyl]formamidine]	100%	100%	100%	100%	100%	100%	100%	100%	0%	0%	0%	0%	–	–
CCN(C)C=Nc1cc(C)c(Sc2cccc(OC(F)(F)C(F)F)c2)cc1C [Compound 2, N-ethyl-N-methyl-N′-{4-[3-(1,1,2,2-tetrafluoroethoxy)phenylthio]-2,5-xylyl}formamidine]	100%	100%	100%	100%	100%	100%	100%	100%	0%	0%	0%	0%	–	–
CCN(C)C=Nc1cc(C)c(Oc2cccc(C(F)(F)F)c2)cc1C [CR-3, N-ethyl-N-methyl-N′-[4-(3-trifluoromethylphenoxy)-2,5-xylyl]formamidine]	85%	95%	100%	100%	85%	95%	96%	100%	21%	33%	20%	35%	marked leaf necrosis	–
CCN(C)C=Nc1cc(C)c(Sc2cccc(OCC(F)(F)C(F)F)c2)cc1C [Compound 19]	100%	100%	100%	100%	100%	100%	100%	100%	0%	0%	0%	0%	–	–
Cc1cc(Oc2cccc(OC(F)(F)F)c2)c(C)cc1N=CN(C)C [CR-4, N,N-dimethyl-N′-[4-(3-trifluoromethoxyphenoxy)-2,5-xylyl]formamidine]	65%	70%	85%	90%	70%	75%	90%	95%	20%	30%	15%	30%	marked leaf necrosis	–
